Data taken from patent US7767789B2, “Truncated proteins as cancer markers” (University Hopitals of Cleveland, priority 2005, dated 2010).

Columns and labels:
[1] = system: CaSki cells; test: DNA solubilization assay (apoptosis); type: cell-based, human
Description: Twenty-four hours before the end of the experiment, cells were labeled with [^3H]thymidine (specific activity, 93 Ci/mmol; 5 μCi/1×10^6 cells) for 16 h. The medium was removed, and cells were washed three times with fresh medium lacking [^3H]thymidine and were incubated in the same medium for an additional 6 h. At the end of incubation, the supernatant was stored, and cells were lysed in 0.5 ml lysis buffer (10 mM Tris-HCl, pH 7.5; plus 1 mM EDTA-0.2% Triton X-100) for 1 h at 4° C. The intact chromatin was separated from the fragmented DNA by 5 min centrifugation at 4° C. in Eppendorf microcentrifuge at 12,000×g. The supernatant (lysate) was stored, while the pellet was resuspended in 0.5 ml of 1% sodium dodecyl sulfate (SDS). The radioactivity contained in the supernatants, lysates; and pellets was counted in a scintillation counter, and DNA fragmentation was calculated as: [% Solubilized DNA]=([cpm supernatant+cpm lysates]/[cpm supernatant+cpm lysate+cpm pellet])×100.

[2] = system: HEK-293-P2X7 cells; test: Apoptosis, Cell Death Detection ELISA-PLUS, HEK-293 cells; type: cell-based, human; conditions: BzATP 50 micromolar
Description: Baseline and BzATP-induced apoptosis in MDCK cells and in HEK-293 cells expressing P2X7 and P2X7-j proteins were studied. FIG. 17. […] Cells were treated with BzATP (50 micromolar) to activate the P2X7 receptors. Apoptosis was quantified using Cell Death Detection ELISA-PLUS photometric enzyme-immunoassay that determines cytoplasmic histone-associated-DNA-fragments (mono and oligonucleosomes) after spontaneous or induced cell death (Roche, Cat. No. 1774425, 96 tests). […] Expression of the P2X7-j proteins either had no effect (HEK-293 cells) or may have decreased apoptosis (MDCK cells).

[3] = system: β-arrestin-2-GFP in CaSki cells; test: Real-time confocal microscopy of β-arrestin-2-GFP, CaSki cells; type: cell-based, human; conditions: CaSki transfected with β-arrestin-2-GFP; not shown
Description: CaSki cells transfected with the β-arrestin-2-GFP, or HEK-293 cells co-transfected with the full-length human P2X7-receptor and the β-arrestin-2-GFP were plated on 35-mm glass-bottom culture dishes (MatTek Corporation, Ashland, MA). Dishes contained a centered, 1 cm well formed from a glass coverslip sealed hole in the plastic. Two hours before experiments the medium was replaced with serum-free medium supplemented with 10 mM HEPES. The distribution of the β-arrestin-2-GFP was visualized before and after treatment with the agonist by real-time confocal microscopy. Imaging of the β-arrestin-2-GFP fluorescence in the same cells was performed on a Zeiss laser-scanning confocal microscope (LSM-510) using a heated (37° C.) microscope stage. Barak et al., “A beta-arrestin/green fluorescent protein biosensor for detecting G protein-coupled receptor activation” J Biol Chem 272:27497-27500 (1997).
Images were collected sequentially before and after treatment with agonist for 0-30 min at 37° C. using single line excitation (488 nm).

[4] = target: T1, full-length human P2X7 receptor (HEK-293-hP2X7-R cells) (Homo sapiens, UniProt Q99572); test: Cytosolic calcium in HEK-293-hP2X7-R and wild-type HEK293 cells on filters; type: cell-based
T1 construct: For transfections, the full length human P2X7 receptor; expressed in transfected cells; host or cells: HEK-293, pcDNA-6 vector
T1 sequence (Q99572 1-595): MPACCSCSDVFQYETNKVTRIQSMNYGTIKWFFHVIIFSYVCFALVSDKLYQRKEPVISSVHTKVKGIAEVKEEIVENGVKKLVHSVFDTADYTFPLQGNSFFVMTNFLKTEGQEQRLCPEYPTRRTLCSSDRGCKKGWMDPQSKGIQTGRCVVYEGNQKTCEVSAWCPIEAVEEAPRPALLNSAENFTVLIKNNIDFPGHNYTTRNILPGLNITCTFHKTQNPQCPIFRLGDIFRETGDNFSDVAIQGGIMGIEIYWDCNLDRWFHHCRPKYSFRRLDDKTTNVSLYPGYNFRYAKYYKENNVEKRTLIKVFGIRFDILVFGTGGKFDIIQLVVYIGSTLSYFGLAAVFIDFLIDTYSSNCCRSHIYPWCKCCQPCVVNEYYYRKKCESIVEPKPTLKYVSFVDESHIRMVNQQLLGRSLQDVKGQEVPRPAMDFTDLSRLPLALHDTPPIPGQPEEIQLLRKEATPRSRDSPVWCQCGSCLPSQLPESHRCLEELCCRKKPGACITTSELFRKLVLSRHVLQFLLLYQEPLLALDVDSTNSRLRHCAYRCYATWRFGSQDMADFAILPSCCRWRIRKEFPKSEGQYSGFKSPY

[5] = target: T2, P2X7 channel (HEK-293 cells expressing P2X7 or P2X7-j) (Homo sapiens, UniProt Q99572, Y155H); type: cell-based; conditions: HEK-293-P2X7-j cells compared to HEK-293-P2X7 cells
T2 construct: expressed in transfected cells; host or cells: HEK-293

[6] = system: P2X7 channel (HEK-293 cells expressing P2X7 or P2X7-j); type: cell-based, human; conditions: P2X7 plus P2X7-j HEK-293 cells compared to P2X7 HEK-293 cells
[7] = target: T3, P2X7 channel (HEK-293 cells expressing P2X7 or P2X7-j) (Homo sapiens, UniProt Q99572, R270H/Y155H); type: cell-based; conditions: HEK-293-P2X7 cells; 100 micromolar BzATP
T3 construct: expressed in transfected cells; host or cells: HEK-293

[8] = system: HEK-293 cells expressing P2X7 or P2X7-j; test: Cell selection: growth with BzATP and immunoblot of P2X7/P2X7-j protein, HEK-293; type: cell-based, human
Description: Growth of various cell lines expressing P2X7 and/or P2X7-j in the presence or absence of BzATP was performed to determine how P2X7 receptors may affect cell selection over time. FIG. 23. HEK-293 cells expressing P2X7, HEK-293 cells expressing P2X7-j, or HeLa cells, which express both P2X7 and P2X7-j were separately grown in culture, in the presence or absence of 50 micromolar BzATP for seven (7) days. At various time points, samples of the cells were taken and examined for expression of P2X7 and/or P2X7-j protein by immunoblotting using a P2X7-specific antibody. This antibody was obtained from Alomone Labs (Jerusalem, Israel) and was reactive with the extracellular domain of P2X7 protein. Amino acids 136-152 of the mouse P2X7 receptor ([…]; (SEQ ID NO:7)) were used as the antigen to prepare the antibody. A labeled secondary antibody was used to visualize reactive protein bands. By layering equal amounts of total protein (15 micrograms) it was possible to compare the relative expression of the P2X7 and/or P2X7-j proteins by the cells.

T3 sequence (Q99572 whole entry Y155H/R270H): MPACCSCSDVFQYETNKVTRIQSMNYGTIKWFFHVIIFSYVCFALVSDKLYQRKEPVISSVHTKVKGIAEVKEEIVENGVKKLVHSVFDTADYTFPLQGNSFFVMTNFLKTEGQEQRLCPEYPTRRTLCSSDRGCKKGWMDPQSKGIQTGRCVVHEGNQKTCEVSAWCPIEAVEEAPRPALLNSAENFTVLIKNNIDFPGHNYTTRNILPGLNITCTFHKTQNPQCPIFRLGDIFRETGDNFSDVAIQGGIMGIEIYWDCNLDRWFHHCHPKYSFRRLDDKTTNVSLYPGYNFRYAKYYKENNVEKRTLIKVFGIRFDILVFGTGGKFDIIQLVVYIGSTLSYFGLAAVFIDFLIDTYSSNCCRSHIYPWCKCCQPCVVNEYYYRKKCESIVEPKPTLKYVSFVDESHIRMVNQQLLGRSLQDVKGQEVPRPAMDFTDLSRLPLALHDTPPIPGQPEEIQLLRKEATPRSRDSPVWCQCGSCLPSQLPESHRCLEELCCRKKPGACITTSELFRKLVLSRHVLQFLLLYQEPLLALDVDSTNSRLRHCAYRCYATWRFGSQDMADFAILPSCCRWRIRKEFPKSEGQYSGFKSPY
T2 sequence (Q99572 1-258 isoform Q99572-9 Y155H): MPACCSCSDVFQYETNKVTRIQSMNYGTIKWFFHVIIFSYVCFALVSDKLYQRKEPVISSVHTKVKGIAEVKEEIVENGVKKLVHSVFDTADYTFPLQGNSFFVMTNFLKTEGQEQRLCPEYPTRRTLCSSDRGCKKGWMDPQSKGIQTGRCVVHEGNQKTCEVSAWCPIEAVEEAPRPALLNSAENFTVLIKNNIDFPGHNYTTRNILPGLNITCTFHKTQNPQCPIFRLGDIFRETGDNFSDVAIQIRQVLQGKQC

Q: What does the source list for “2′-3′-O-(4-benzoylbenzoyl)adenosine 5′-triphosphate [BzATP]”?
A: DNA solubilization ([1]; 100 μM BzATP for 9 h, baseline 1.9%): 7.8%; DNA solubilization ([1]; 100 μM BzATP for 9 h or 10 μM TNFα for 14 h): significantly increased DNA solubilization; apoptosis [2]: further increased this baseline apoptosis; re-distribution of GFP fluorescence towards cell periphery [3]: A similar effect was observed; sustained cytosolic calcium increase [4]: induced sustained Ci increase; calcium response to BzATP [5]: significantly smaller; calcium response to BzATP [6]: significantly smaller; Fluo-4 signal (cytosolic calcium) [7]: increased acutely the Fluo-4 signal; expression of the P2X7-j protein ([8]; HEK-293 cells expressing P2X7-j, continuous 50 micromolar BzATP): did not decrease the expression of the P2X7-j protein; expression of the P2X7 protein ([8]; HEK-293 cells expressing P2X7, 50 micromolar BzATP, each day up to 7 days): less than in cells not treated with BzATP
